Laboratory results as given in the RepoRT retention time repository.
Where a name gives a salt, the structure may show the parent alone.

assay: HILIC, Merck SeQuant ZIC-HILIC, 25 °C, 0.25 mL/min; A: water + 16 mM ammonium formate; B: acetonitrile + 0.1% formic acid, pH 3; gradient (min/%B) 0/97 2/97 10/70 15/10 17/10 18/97 25/97; conditions: stereoisomer not certain

SMILES | LC retention time
NCCc1ccccc1 [PHENETHYLAMINE] | 10.2 min
NCCc1cc(O)c(O)cc1O [6-HYDROXYDOPAMINE] | 12.6 min
NCCc1cnc[nH]1 [HISTAMINE] | 17 min
CCCCCCCCC=CCCCCCCCCCCCCCC(=O)[O-] [NERVONATE] | 1.52 min
CC12CCC(=O)C=C1CCC1C2CCC2(C)C1CCC2(O)C(=O)CO (stereo not given) [CORTEXOLONE] | 1.71 min
Cc1ncc(CO)c(CN)c1O [PYRIDOXAMINE] | 14.6 min
NCC(O)c1ccccc1 (stereo not given) [PHENYLETHANOLAMINE] | 10.9 min
O=C(O)CCCCCCCCCO [10-HYDROXYDECANOATE] | 1.75 min
CCCCCCCCC=CCCCCCCCC(=O)OCC(CO)OC(=O)CCCCCCCC=CCCCCCCCC (stereo not given) [1-2-dioleoyl-sn-glycerol] | 1.49 min
O=c1[nH]cnc2c1ncn2C1OC(COP(=O)([O-])OP(=O)([O-])O)C(O)C1O (stereo not given) [INOSINE 5'-DIPHOSPHATE] | 15 min
O=C(O)C=Cc1cnc[nH]1 [UROCANATE] | 8.66 min
CC(CCC(=O)O)C1CCC2C3CCC4CC(O)CCC4(C)C3CC(O)C12C (stereo not given) [deoxycholic acid] | 1.98 min
Cc1cc(O)cc2c1OC(C)(CCC(=O)O)CC2 (stereo not given) [delta CEHC] | 1.87 min
CC12CCC3c4ccc(O)cc4CCC3C1CCC2O (stereo not drawn) [ESTRADIOL-17ALPHA] | 1.7 min
O=CC[C@@H](O)[C@H](O)[C@H](O)CO [2-DEOXY-D-GLUCOSE] | 10.2 min
O=C(O)c1cc(=O)c2cccc(O)c2[nH]1 [XANTHURENATE] | 10.4 min
CCCCCCCCCCCCCCC=COCC(O)COP(=O)([O-])OCC[N+](C)(C)C (stereo not given) [C16_PlasmLPC] | 11.1 min
Cc1ncc(C[n+]2csc(CCO)c2C)c(N)n1 [THIAMINE] | 14.3 min
Oc1cc(O)c2c(c1)OC(c1ccc(O)c(O)c1)C(O)C2 (single isomer, unassigned; (+)) [(+)-Catechin hydrate] | 9.95 min
NCCP(=O)(O)O [(2-AMINOETHYL)PHOSPHONATE] | 15 min
NC(=O)CCCCC1CCSS1 (stereo not given) [LIPOAMIDE] | 1.79 min

SMILES | LC retention time
Cc1ncc(CO)c(CO)c1O [PYRIDOXINE] | 10.4 min
Nc1c(O)cccc1C(=O)O [3-HYDROXYANTHRANILATE] | 2.15 min
O=c1c(OC2OC(CO)C(O)C(O)C2O)c(-c2ccc(O)c(O)c2)oc2cc(O)cc(O)c12 [Quercetin-3-beta-D-glucoside] | 9.37 min
O=c1[nH]c(=O)c2ncn(C3OC(CO)C(O)C3O)c2[nH]1 (stereo not given) [XANTHOSINE] | 10.4 min
CSCCC(NC(C)=O)C(=O)O (stereo not given) [N-ACETYLMETHIONINE] | 2.18 min
COC(=O)Cc1ccc(O)cc1 [Methyl 4-hydroxyphenylacetate] | 1.67 min
CC(=O)C1(O)CCC2C3CC=C4CC(O)CCC4(C)C3CCC21C (stereo not given) [17a-Hydroxypregnenolone_H2] | 2.17 min
C#CC1(O)CCC2C3CCc4cc(O)ccc4C3CCC21C (stereo not given) [17a-Ethynylestradiol] | 1.68 min
CC(N)(Cc1cnc[nH]1)C(=O)O (racemic) [Alpha-methyl-DL-histidine dihydrochloride] | 15.5 min
CC(=O)OCC(=O)O [Acetoxyacetic acid] | 2.23 min
CC(C)CC(O)C(=O)O (stereo not given) [2-Hydroxyisocaproic acid] | 1.91 min
Cn1c(=O)[nH]c(=O)c2c1[nH]c(=O)n2C [3-7-Dimethyluric acid] | 2.24 min
O=c1ccn(C2CC(O)C(CO)O2)c(=O)[nH]1 (stereo not given) [DEOXYURIDINE] | 2.45 min
Nc1cc([O-])cc(C(=O)O)c1 [3-AMINO-5-HYDROXYBENZOATE] | 2.16 min
CC12CCC(O)CC1CCC1C2C(O)CC2(C)C1CCC2(O)C(=O)CO (stereo not given) | 1.91 min
O=C(O)Cc1cnc[nH]1 [4-IMIDAZOLEACETATE] | 13.6 min
O=C(O)c1cccc[n+]1[O-] [Picolinic acid N-oxide] | 1.9 min
Nc1ccc(C(=O)O)cn1 [6-Aminopyridine-3-carboxylic acid] | 8.01 min
O=Cc1cccc(O)c1 [3-HYDROXYBENZALDEHYDE] | 1.75 min
Nc1ncnc2c1ncn2C1OC(COP(=O)(O)OP(=O)(O)OCC2OC(O)C(O)C2O)C(O)C1O (stereo not given) [ADENOSINE DIPHOSPHATE RIBOSE] | 14.6 min
CC(CCC(=O)O)C1CCC2C3C(O)CC4CC(O)CCC4(C)C3CCC12C (stereo not given) [CHENODEOXYCHOLATE] | 1.85 min

SMILES | LC retention time
Nc1nc2nc[nH]c2c(=O)[nH]1 [GUANINE] | 10.8 min
CCCCCCCCC=CCCCCCCCC(=O)OCC(O)COP(=O)(O)OCCN (stereo not given) [18-1_LysoPE] | 10.3 min
CCC(C)C(N)C(=O)O (stereo not given) [ISOLEUCINE] | 11.6 min
O=C(O)CCCCC1CCSS1 (racemic) | 1.66 min
NC(Cc1cc(I)c(O)c(I)c1)C(=O)O [3-5-DIIODO-L-TYROSINE] | 10.5 min
Cc1cc(=O)oc(C)c1C(=O)O [Isodehydracetic acid] | 2.33 min
O=C(O)CCCCCCCCC(=O)O [Sebacic acid] | 1.88 min
CCCCCCCCCCCCCCCCCC(=O)O [STEARATE] | 1.56 min
CC(=O)NCCCNCCCCNCCCN [N1-ACETYLSPERMINE] | 19.9 min
Nc1nc2c(ncn2C2CC(O)C(COP(=O)(O)OP(=O)(O)OP(=O)(O)O)O2)c(=O)[nH]1 (stereo not given) [DGTP] | 15.7 min
OCC1OC(OC2OC(CO)C(O)C(O)C2O)C(O)C(O)C1O (stereo not given) [TREHALOSE] | 14.1 min
CCCCCCCCCCCCCC(=O)OC(CO)COP(=O)(O)OCCN (stereo not given) [14-0_LysoPE] | 10.3 min
CCCCCCCCCCCCCCCCCC(=O)OCC(O)COP(=O)(O)OCCN (stereo not given) [18-0_LysoPE] | 10.2 min
O=Cc1ccc(O)cc1 [4-HYDROXYBENZALDEHYDE] | 1.77 min
O=c1cccc[nH]1 [2-HYDROXYPYRIDINE] | 2.15 min
Cc1ccccc1C(=O)NCC(=O)O [2-Methylhippuric acid (ortho-Methylhippuric acid)] | 1.97 min
Nc1nc2c(ncn2C2OC3COP(=O)(O)OC3C2O)c(=O)[nH]1 (stereo not given) [CYCLIC GMP] | 13.4 min
COC1=C(OC)C(=O)C(CC=C(C)CCC=C(C)C)=C(C)C1=O [coenzyme Q2] | 1.52 min
O=C(O)c1ccc[nH]1 [PYRROLE-2-CARBOXYLATE] | 2.08 min
Cc1cc2nc3c(=O)[nH]c(=O)nc-3n(CC(O)C(O)C(O)COP(=O)(O)OP(=O)(O)OCC3OC(n4cnc5c(N)ncnc54)C(O)C3O)c2cc1C (stereo not given) [FAD] | 13.8 min

Now from value to compound:

LC retention time | SMILES
16.1 min | Cn1cncc1CC(NC(=O)CCN)C(=O)O (stereo not given) [ANSERINE]
17.5 min | O=C(O)C(=O)O [OXALATE]
4.93 min | CC(=O)NCC(=O)O [N-ACETYLGLYCINE]
14.7 min | Nc1nc2c(ncn2C2OC(COP(=O)(O)O)C(O)C2O)c(=O)[nH]1 (stereo not given) [GUANOSINE MONOPHOSPHATE]
14.5 min | Nc1ccn(C2CC(O)C(COP(=O)(O)O)O2)c(=O)n1 (stereo not given) [DEOXYCYTIDINE MONOPHOSPHATE]
2.18 min | CC(C)(CC(=O)O)C(=O)O [2-2-Dimethylsuccinic acid]
14.4 min | NC(N)=NC(CC(=O)O)C(=O)O (stereo not given) [GUANIDINOSUCCINATE]
16.4 min | Cc1ncc(C[n+]2csc(CCOP(=O)(O)O)c2C)c(N)n1 [THIAMINE MONOPHOSPHATE]
2.06 min | O=C(O)C(=O)CCc1ccccc1 [2-oxo-4-phenyl-butyric acid]
16 min | NCCC(=O)NC(Cc1cnc[nH]1)C(=O)O (stereo not given) [CARNOSINE]
2.14 min | O=C(O)c1cccc(O)c1O [2-3-DIHYDROXYBENZOATE]
12.4 min | CC(=O)OCC(N)C(=O)O (stereo not given) [O-ACETYLSERINE]
1.84 min | O=C(O)CCCCCCCC(=O)O [AZELATE]
4.96 min | CC(O)(CC(=O)O)CC(=O)O [3-HYDROXYMETHYLGLUTARATE]
9.75 min | CC(=O)NC(CC(N)=O)C(=O)O (stereo not given) [N-ACETYLASPARAGINE]
2.1 min | CC(C)(CCC(=O)O)C(=O)O [2-2-Dimethylglutaric acid]
2.53 min | NC(=O)C=CC(=O)O [MALEAMATE]

LC retention time | SMILES
13.2 min | Nc1ncnc2c1ncn2C1OC(CO)C(OP(=O)(O)O)C1O (stereo not given) [Adenosine 3'-monophosphate free acid]
8.76 min | CC(=O)NC(CC(=O)O)C(=O)O (stereo not given) [N-ACETYLASPARTATE]
13.8 min | O=C(O)C(=O)CS [MERCAPTOPYRUVATE]
1.94 min | CC(C)C(O)C(=O)O (stereo not given)
1.81 min | O=C(O)c1ccccc1O [SALICYLATE]
2.17 min | O=C([O-])C=CC(=O)[O-] [MALEATE]
14.7 min | O=P(O)(O)OC1OC(CO)C(O)C(O)C1O (stereo not given) [GALACTOSE 1-PHOSPHATE]
15.4 min | Nc1ccn(C2OC(COP(=O)(O)OP(=O)(O)O)C(O)C2O)c(=O)n1 (stereo not given) [CYTIDINE DIPHOSPHATE]
14.7 min | C=C(OP(=O)(O)O)C(=O)[O-] [PHOSPHOENOLPYRUVATE]
2.18 min | CC(CC(=O)O)C(=O)O (stereo not given) [Methyl-succinic acid]
15.7 min | Nc1ncnc2c1ncn2C1CC(O)C(COP(=O)(O)OP(=O)(O)OP(=O)(O)O)O1 (stereo not given) [DEOXYADENOSINE TRIPHOSPHATE]
15.6 min | C[N+](C)(C)CCOP(=O)(O)O [PHOSPHORYLCHOLINE]
2.04 min | COc1cc(CC(=O)O)ccc1O [HOMOVANILLATE]
1.91 min | O=C(O)CCCCCCC(=O)O [SUBERATE]
14.4 min | O=c1[nH]c(=O)c2ncn(C3OC(COP(=O)(O)O)C(O)C3O)c2[nH]1 (stereo not given) [XANTHOSINE-MONOPHOSPHATE]
13.3 min | NC(CCOC(=O)CCC(=O)O)C(=O)O (stereo not given) [O-SUCCINYL-HOMOSERINE]
